In patent US12331044B2, “Inhibitors of histone deacetylase useful for the treatment or prevention of HIV infection” (Merck Sharp & Dohme LLC, priority 2018, dated 2025) one finds IC50 and EC50 data, which are given here for 12 compounds.

Like-named read-outs stand apart in the source and are kept apart here.

The target of one test is human HDAC2 (Homo sapiens (Human), UniProt Q92769). Briefly: HDAC2 inhibition assay (modified FLUOR DE LYS, 384-well). In kind it is biochemical. As to conditions: […] nM enzyme, 40 μM substrate BML-KI104, 3 h pre-incubation; read-out: HDAC2 IC50.
human HDAC2, sequence (Q92769 whole entry): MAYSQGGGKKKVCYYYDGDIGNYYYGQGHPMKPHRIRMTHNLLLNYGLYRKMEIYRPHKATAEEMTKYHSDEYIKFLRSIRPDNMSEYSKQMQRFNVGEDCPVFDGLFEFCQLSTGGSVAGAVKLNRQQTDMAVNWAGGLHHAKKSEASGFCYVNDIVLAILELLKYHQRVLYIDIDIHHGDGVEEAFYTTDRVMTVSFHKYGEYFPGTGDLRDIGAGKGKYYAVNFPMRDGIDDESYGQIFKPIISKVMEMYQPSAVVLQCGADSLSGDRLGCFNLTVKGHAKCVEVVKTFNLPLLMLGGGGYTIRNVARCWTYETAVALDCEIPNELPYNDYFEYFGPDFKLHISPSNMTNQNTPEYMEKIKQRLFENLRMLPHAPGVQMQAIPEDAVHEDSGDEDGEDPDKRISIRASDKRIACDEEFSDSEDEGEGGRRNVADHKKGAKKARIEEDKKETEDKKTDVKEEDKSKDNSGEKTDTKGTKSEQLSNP
Another test concerns the target human HDAC8 (Homo sapiens (Human), UniProt Q9BY41). As to the kind of experiment: HDAC8 inhibition assay (modified FLUOR DE LYS, 384-well). In kind it is biochemical. The conditions noted are these: […] nM enzyme, 200 μM substrate BML-KI178, 3 h pre-incubation; read-out: HDAC8 IC50.
The test system of a further test is KARN cells (Jurkat 2C4). As to the kind of experiment: cells. As to conditions: Homo sapiens.
The next test concerns the target human HDAC1 (Homo sapiens (Human), UniProt Q13547). Briefly: biochemical.
In test [1] the target is human HDAC3/SMRT heterodimer (Homo sapiens (Human), UniProt O15379). Briefly: biochemical.
human HDAC3/SMRT heterodimer, sequence (O15379 whole entry): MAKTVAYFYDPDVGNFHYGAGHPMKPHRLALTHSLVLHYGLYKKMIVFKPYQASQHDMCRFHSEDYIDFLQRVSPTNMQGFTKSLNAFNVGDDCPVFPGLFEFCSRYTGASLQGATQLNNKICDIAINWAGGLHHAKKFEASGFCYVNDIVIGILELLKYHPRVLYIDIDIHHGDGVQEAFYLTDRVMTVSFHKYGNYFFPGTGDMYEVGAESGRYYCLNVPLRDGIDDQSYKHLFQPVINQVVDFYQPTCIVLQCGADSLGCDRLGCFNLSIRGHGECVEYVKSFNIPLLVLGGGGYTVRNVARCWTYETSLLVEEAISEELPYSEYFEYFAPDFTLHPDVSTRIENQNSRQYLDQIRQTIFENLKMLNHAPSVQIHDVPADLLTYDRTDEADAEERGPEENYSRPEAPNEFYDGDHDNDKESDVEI
human HDAC3/SMRT heterodimer, sequence (Q9Y618 1-899 partner): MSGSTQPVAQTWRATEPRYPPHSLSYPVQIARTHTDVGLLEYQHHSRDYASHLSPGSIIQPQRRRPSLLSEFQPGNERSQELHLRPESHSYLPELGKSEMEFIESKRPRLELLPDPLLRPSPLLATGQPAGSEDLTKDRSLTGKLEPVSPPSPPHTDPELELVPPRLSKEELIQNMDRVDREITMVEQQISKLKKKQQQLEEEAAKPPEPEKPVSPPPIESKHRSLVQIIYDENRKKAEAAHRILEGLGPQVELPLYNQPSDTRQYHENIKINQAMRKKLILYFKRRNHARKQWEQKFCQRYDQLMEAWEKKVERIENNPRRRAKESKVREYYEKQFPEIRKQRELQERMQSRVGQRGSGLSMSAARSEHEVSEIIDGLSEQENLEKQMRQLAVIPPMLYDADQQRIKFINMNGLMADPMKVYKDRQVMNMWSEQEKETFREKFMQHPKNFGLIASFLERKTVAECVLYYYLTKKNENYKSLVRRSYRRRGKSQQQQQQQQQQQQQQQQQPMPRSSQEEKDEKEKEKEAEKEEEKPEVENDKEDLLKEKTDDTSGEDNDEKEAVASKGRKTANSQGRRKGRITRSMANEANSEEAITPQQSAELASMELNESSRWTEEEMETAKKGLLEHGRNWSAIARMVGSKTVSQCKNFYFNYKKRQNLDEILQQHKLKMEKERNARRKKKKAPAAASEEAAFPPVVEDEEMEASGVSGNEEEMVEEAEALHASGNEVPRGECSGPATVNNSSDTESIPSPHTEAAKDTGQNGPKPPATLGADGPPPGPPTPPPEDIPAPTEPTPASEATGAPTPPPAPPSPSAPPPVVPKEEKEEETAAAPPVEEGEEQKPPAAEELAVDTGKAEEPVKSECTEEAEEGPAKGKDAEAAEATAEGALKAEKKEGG
For a further test, the target named is HDAC6 (Homo sapiens (Human), UniProt Q9UBN7). As to the kind of experiment: biochemical.
HDAC6, sequence (Q9UBN7 whole entry): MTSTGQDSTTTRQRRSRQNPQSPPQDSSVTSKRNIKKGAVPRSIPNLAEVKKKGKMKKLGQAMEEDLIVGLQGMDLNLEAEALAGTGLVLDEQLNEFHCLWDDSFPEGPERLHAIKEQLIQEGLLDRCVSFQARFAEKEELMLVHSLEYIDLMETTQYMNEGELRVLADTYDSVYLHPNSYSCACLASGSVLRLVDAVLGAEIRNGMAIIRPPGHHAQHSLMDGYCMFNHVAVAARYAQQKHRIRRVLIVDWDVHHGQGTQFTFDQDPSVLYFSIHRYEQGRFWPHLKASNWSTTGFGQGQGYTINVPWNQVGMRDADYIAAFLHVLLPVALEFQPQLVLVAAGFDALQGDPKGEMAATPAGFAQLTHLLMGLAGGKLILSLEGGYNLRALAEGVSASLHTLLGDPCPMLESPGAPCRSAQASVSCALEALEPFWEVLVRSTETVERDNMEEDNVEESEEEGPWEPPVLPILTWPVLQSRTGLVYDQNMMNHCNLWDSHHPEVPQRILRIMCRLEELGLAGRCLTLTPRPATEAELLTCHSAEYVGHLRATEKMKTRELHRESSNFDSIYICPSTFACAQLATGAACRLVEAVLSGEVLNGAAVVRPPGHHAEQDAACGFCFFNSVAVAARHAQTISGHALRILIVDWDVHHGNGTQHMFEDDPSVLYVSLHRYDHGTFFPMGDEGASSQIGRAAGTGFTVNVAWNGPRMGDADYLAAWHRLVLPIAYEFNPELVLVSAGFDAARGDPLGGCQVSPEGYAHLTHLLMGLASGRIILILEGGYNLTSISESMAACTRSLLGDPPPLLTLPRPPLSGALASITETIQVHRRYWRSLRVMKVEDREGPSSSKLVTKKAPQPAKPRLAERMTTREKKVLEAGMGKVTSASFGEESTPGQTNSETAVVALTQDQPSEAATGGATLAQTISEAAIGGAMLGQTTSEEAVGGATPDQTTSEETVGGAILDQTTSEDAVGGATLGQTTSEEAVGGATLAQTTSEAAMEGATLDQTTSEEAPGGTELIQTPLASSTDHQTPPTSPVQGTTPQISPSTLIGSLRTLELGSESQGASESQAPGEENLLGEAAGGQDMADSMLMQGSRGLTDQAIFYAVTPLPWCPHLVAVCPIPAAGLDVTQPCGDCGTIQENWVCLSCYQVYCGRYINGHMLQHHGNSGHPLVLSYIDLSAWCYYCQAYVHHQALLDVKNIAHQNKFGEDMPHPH
[2] abbreviates: read-out: Karn EC50 nM 0.1% NHS.
Where [3] appears, read: read-out: Karn EC50 nM 0.1% NHS, 0.1% normal human serum, luciferase induction, 2 μM SAHA = 100%.
Where [4] appears, read: read-out: Karn EC50 nM 5% NHS, 5% normal human serum, luciferase induction, 2 μM SAHA = 100%.

human HDAC1, sequence (Q13547 whole entry): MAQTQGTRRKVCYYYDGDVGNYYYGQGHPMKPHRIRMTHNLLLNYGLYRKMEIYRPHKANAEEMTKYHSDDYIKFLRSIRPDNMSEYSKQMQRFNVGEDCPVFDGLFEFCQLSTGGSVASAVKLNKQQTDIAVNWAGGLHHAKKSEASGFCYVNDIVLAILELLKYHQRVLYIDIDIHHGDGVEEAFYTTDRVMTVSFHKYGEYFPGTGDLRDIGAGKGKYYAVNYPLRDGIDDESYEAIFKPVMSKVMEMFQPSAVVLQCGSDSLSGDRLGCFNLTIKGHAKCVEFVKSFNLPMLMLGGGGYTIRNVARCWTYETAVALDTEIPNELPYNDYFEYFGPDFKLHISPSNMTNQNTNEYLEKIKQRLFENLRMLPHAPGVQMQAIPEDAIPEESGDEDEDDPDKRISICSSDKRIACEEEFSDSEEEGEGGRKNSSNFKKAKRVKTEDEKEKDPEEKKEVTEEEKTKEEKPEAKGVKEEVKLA
human HDAC8, sequence (Q9BY41 whole entry): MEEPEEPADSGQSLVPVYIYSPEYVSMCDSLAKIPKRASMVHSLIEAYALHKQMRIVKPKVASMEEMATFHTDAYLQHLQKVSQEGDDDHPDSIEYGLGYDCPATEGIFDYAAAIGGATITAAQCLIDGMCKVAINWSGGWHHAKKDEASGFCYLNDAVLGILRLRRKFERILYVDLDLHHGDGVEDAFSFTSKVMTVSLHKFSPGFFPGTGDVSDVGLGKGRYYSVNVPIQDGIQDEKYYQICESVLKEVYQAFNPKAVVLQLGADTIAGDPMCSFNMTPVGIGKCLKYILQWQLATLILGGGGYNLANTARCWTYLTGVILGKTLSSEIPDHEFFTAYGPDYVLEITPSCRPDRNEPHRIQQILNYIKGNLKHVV
Experimental for HDAC6: The histone deacetylase activities of HDAC1, HDAC2, HDAC3, HDAC6, and HDAC8 were measured in modified FLUOR DE LYS assays in 384-well format. In this assay, HDAC enzymes are initially incubated with an F-acetyl (or -trifluoroacetyl)-L-lysine-containing substrate with a C-terminal amide having aminomethylcoumarin as the amine component. HDACs cleave the F-acetyl group, rendering the resulting product susceptible to AMC cleavage by trypsin. The released AMC is then detected by its fluorescence. […] All steps were performed at room temperature (23° C.). The assay was performed by pre-incubating serial dilutions of test compounds with the target HDAC prior to initiation with substrate. […] Final conditions used for each assay were: 1. […] The reactions were stopped and developed by addition of 30 ul of HDAC developer solution containing a saturating level of HDAC inhibitor as follows: 1. […] For data analysis, background subtracted product (fluorescence) vs. time data for each inhibitor concentration was fitted using a 4-parameter fit.

In general, IC50 refers to the point on the concentration scale where inhibition reaches its midpoint. For orientation: EC50 means the concentration that produces a half-maximal response. `CC(=O)N[C@@H](CCCCCC(=O)c1ncco1)c1ncc(-c2ccc3nc(C)ccc3c2)[nH]1` [Example 87, (S)-N-(1-(5-(2-methylquinolin-6-yl)-1H-imidazol-2-yl)-7-(oxazol-2-yl)-7-oxoheptyl)acetamide]: the IC50 came out at 5.7 nM at human HDAC2; 130 nM at human HDAC8; 0.69 nM on human HDAC1; 1.8 nM in test [1]; 8600 nM at HDAC6. The EC50 in the test on KARN cells (Jurkat 2C4) (setting [2]) was determined as 43 nM; with KARN cells (Jurkat 2C4) (read-out: Karn EC50 nM 5% NHS), 60 nM.
Turning to `O=C(CCCCC[C@H](NC(=O)c1cncs1)c1[nH]c(-c2ccc(F)cc2)nc1Cl)c1ncco1` [Example 88, (S)-N-(1-(4-chloro-2-(4-fluorophenyl)-1H-imidazol-5-yl)-7-(oxazol-2-yl)-7-oxoheptyl)thiazole-5-carboxamide], the IC50 is 1.4 nM at human HDAC2; 61 nM at human HDAC8; 0.22 nM on human HDAC1; 0.37 nM in test [1]; ≥ 45000 nM against HDAC6. The EC50 with KARN cells (Jurkat 2C4) (setting [3]) was 25 nM; in the test with KARN cells (Jurkat 2C4) (setting [4]), 380 nM.
`COc1cc2nc(C)ccc2cc1-c1cnc([C@H](CCCCCC(=O)c2ncco2)NC(=O)CN(C)C)[nH]1` [Example 89, (S)-2-(dimethylamino)-N-(1-(5-(7-methoxy-2-methylquinolin-6-yl)-1H-imidazol-2-yl)-7-(oxazol-2-yl)-7-oxoheptyl)acetamide]: the IC50 was 3.4 nM at human HDAC2; 69 nM at human HDAC8; 0.8 nM on human HDAC1; 1.5 nM in test [1]; 1700 nM at HDAC6. For the same compound, the EC50 came to 13 nM in the test with KARN cells (Jurkat 2C4) (setting [2]) and 32 nM in the test with KARN cells (Jurkat 2C4) (read-out: Karn EC50 nM 5% NHS).
Consider `CCn1ccc2cc(-c3cnc([C@H](CCCCCC(=O)c4ccon4)NC(=O)CN(C)C)[nH]3)c(OC)cc2c1=O` [Example 94, (S)-2-(dimethylamino)-N-(1-(5-(2-ethyl-7-methoxy-1-oxo-1,2-dihydroisoquinolin-6-yl)-1H-imidazol-2-yl)-7-(isoxazol-3-yl)-7-oxoheptyl)acetamide], for which the IC50 at human HDAC2 was found to be 1 nM; on human HDAC8, 5.2 nM; at human HDAC1, 0.26 nM; in test [1] it was 0.24 nM; against HDAC6 it was 20000 nM. Further, the EC50 was found to be 3.8 nM in the test with KARN cells (Jurkat 2C4) (setting [3]) and 8.8 nM with KARN cells (Jurkat 2C4) (setting [4]).
`CN(C)CC(=O)N[C@@H](CCCCCC(=O)c1ncco1)c1ncc(-c2ccc3nccnc3c2)[nH]1` [Example 95, (S)-2-(dimethylamino)-N-(7-(oxazol-2-yl)-7-oxo-1-(5-(quinoxalin-6-yl)-1H-imidazol-2-yl)heptyl)acetamide]: the IC50 at human HDAC2 worked out at 8.6 nM; on human HDAC8, 68 nM; on human HDAC1, 1.3 nM; in test [1], 2.2 nM; against HDAC6, 700 nM. For the same compound, the results for the EC50 in the test with KARN cells (Jurkat 2C4) (setting [3]) and in the test with KARN cells (Jurkat 2C4) (setting [4]) were 63 nM and 84 nM, respectively.
In the case of `CCN1CCC2(CC1)C[C@@H]2C(=O)N[C@@H](CCCCCC(=O)c1ncco1)c1[nH]c(-c2ccc(F)cc2)nc1Cl` [Example 97, (S)-N-((S)-1-(4-chloro-2-(4-fluorophenyl)-1H-imidazol-5-yl)-7-(oxazol-2-yl)-7-oxoheptyl)-6-ethyl-6-azaspiro[2.5]octane-1-carboxamide], the IC50 at human HDAC2 stood at 0.38 nM; at human HDAC8, 210 nM; at human HDAC1, 0.049 nM; in test [1], 0.066 nM; against HDAC6, 19000 nM. Besides, the EC50 stood at 4.1 nM in the test with KARN cells (Jurkat 2C4) (setting [3]) and 11 nM in the test with KARN cells (Jurkat 2C4) (setting [4]).
On to `COc1cc2nc(C)ccc2cc1-c1cnc([C@H](CCCCCC(=O)c2ncco2)NC(=O)C2CCN(C)CC2)[nH]1` [Example 98, (S)-N-(1-(5-(7-methoxy-2-methylquinolin-6-yl)-1H-imidazol-2-yl)-7-(oxazol-2-yl)-7-oxoheptyl)-1-methylpiperidine-4-carboxamide], for which the IC50 on human HDAC2 is 3.6 nM; on human HDAC8 it was 25 nM; against human HDAC1, 0.34 nM; in test [1], 0.64 nM; on HDAC6 it was 1000 nM. Besides, the EC50 came to 58 nM in the test with KARN cells (Jurkat 2C4) (setting [2]) and 170 nM in the test with KARN cells (Jurkat 2C4) (read-out: Karn EC50 nM 5% NHS).
As to `COc1cc2nc(C)ccc2cc1-c1cnc([C@H](CCCCCC(=O)c2ncco2)NC(=O)C2CN(C)C2)[nH]1` [Example 99, (S)-N-(1-(5-(7-methoxy-2-methylquinolin-6-yl)-1H-imidazol-2-yl)-7-(oxazol-2-yl)-7-oxoheptyl)-1-methylazetidine-3-carboxamide], the IC50 at human HDAC2 is 2.6 nM; at human HDAC8 it was 56 nM; against human HDAC1, 0.3 nM; in test [1], 0.47 nM; against HDAC6, 1300 nM. The EC50 was found to be 77 nM in the test on KARN cells (Jurkat 2C4) (setting [2]) and 73 nM with KARN cells (Jurkat 2C4) (read-out: Karn EC50 nM 5% NHS).
For the compound `COc1cc2nc(C)ccc2cc1-c1cnc([C@H](CCCCCC(=O)c2ncco2)NC(=O)C2CN(C)C2)o1` [Example 100, (S)-N-(1-(5-(7-methoxy-2-methylquinolin-6-yl)oxazol-2-yl)-7-(oxazol-2-yl)-7-oxoheptyl)-1-methylazetidine-3-carboxamide], the IC50 on human HDAC2 was found to be 1.3 nM; on human HDAC8, 130 nM; at human HDAC1, 0.45 nM; in test [1], 0.28 nM; at HDAC6, 620 nM. Besides, the EC50 in the test on KARN cells (Jurkat 2C4) (setting [2]) worked out at 19 nM; with KARN cells (Jurkat 2C4) (read-out: Karn EC50 nM 5% NHS) it was 21 nM.
As for `CN1CC(C(=O)N[C@@H](CCCCCC(=O)c2ncco2)c2[nH]c(-c3ccc(F)cc3)nc2Cl)C1` [Example 101, (S)-N-(1-(4-chloro-2-(4-fluorophenyl)-1H-imidazol-5-yl)-7-(oxazol-2-yl)-7-oxoheptyl)-1-methylazetidine-3-carboxamide], the IC50 on human HDAC2 was 1.5 nM; at human HDAC8 it was 340 nM; against human HDAC1 it was 1.5 nM; in test [1], 1.5 nM; against HDAC6, ≥ 45000 nM. For the same compound, the EC50 is 27 nM in the test with KARN cells (Jurkat 2C4) (setting [3]) and 22 nM with KARN cells (Jurkat 2C4) (setting [4]).
As to `CN1CC(C(=O)N[C@@H](CCCCCC(=O)c2ccon2)c2[nH]c(-c3ccccc3F)nc2Cl)C1` [Example 105, (S)-N-(1-(4-chloro-2-(2-fluorophenyl)-1H-imidazol-5-yl)-7-(isoxazol-3-yl)-7-oxoheptyl)-1-methylazetidine-3-carboxamide], the IC50 at human HDAC2 turned out to be 0.37 nM; on human HDAC8, 29 nM; against human HDAC1, 0.12 nM; in test [1], 0.046 nM; at HDAC6 it was 8500 nM. Besides, the EC50 with KARN cells (Jurkat 2C4) (setting [3]) stood at 2.8 nM; with KARN cells (Jurkat 2C4) (setting [4]), 3.5 nM.
On to `COc1cc2nc(C)ccc2cc1-c1cnc([C@H](CCCCCC(=O)c2ccon2)NC(=O)C2CN(C)C2)o1` [Example 108, (S)-N-(7-(isoxazol-3-yl)-1-(5-(7-methoxy-2-methylquinolin-6-yl)oxazol-2-yl)-7-oxoheptyl)-1-methylazetidine-3-carboxamide], for which the IC50 was 0.35 nM on human HDAC2; 5.8 nM on human HDAC8; 0.18 nM at human HDAC1; 0.19 nM in test [1]; > 900 nM on HDAC6. The EC50 with KARN cells (Jurkat 2C4) (setting [3]) worked out at 6.4 nM; in the test with KARN cells (Jurkat 2C4) (setting [4]), 6.1 nM.
